“Also recorded” adds a separate entry of the source.
Key:
[1] = test system: aged rats; assay: performance of a stabilized delayed alternation task at three retention delays in aged rats; format: in vivo, rat; set-up: dose or concentration left out as unconfirmed; settings: 15, 30 or 60 modafinil
Procedure: In another study, aged rats were tested for performance of a stabilized delayed alternation task at three retention delays. After stabilized performance in training sessions the rats were entered into a drug testing study with […] of modafinil. A trial started with the presentation of a single lever (left or right). […] After the expiration of the delay, the 2 levers were inserted into the chamber and the animal received a food pellet only if it pressed the lever not previously presented (delayed alternation). Incorrect responses (responses on the same lever) were not reinforced. The 3 delays were randomly presented and equally distributed throughout the session. Correct or incorrect responses were followed by retraction of the two levers. […] The test results indicated the response accuracy of the animal after each retention delay, the simple reaction time in the one lever presentation, and the choice reaction time in the two lever presentation. […] Therefore, modafinil had no effect on improving short term memory at these doses.

[2] = dose of 200 mg to an adult human; cited from earlier work
[3] = test system: adult humans; assay: wakefulness promoting dose extrapolated to adult humans; format: in vivo, human; settings: extrapolation in adult humans
Procedure: The dosage levels in rats in the studies described herein are reported in mg/kg administered by intraperitoneal injection (i.p.). As described in previous publications, the wakefulness promoting dose of modafinil in rats is highly significant at doses of 100 to 300 mg/kg i.p. (Edgar and Seidel, The Journal of Pharmacology and Experimental Therapeutics, vol. 283, pp 757-769, 1997). The extrapolation in adult humans is a wakefulness promoting dose of 200 mg/day. A dose of 200 mg to an adult human would result in a serum level of about 6.4 μg/ml. […] An effective dose, therefore, is a dose given as a single unit per day in a sustained release formula or given periodically would be that dose that maintains a serum level of from about 0.05 to about 2 μg/ml.

[4] = test system: aged male Wistar rats; settings: rat, in vivo

NC(=O)C[S+]([O-])C(c1ccccc1)c1ccccc1 (centres unmarked) [Modafinil, 2-(benzhydrylsulfinyl) acetamide]
effect on improving short term memory [1]: no effect | number of correct responses at any retention delay ([1]; retention delays 5, 10 or 20 seconds): did not significantly affect | serum level [2]: about 6.4 μg/ml | wakefulness promoting dose [3]: 200 mg/day | choice reaction times [4]: significantly decreased | general ability of animals to perform the task [4]: failed to improve | number of correct responses [4]: No effects | number of correct responses (response accuracy) [4]: significantly increased | number of response omissions [4]: significantly increased | simple reaction times [4]: No clear effects; also recorded: tended to increase | cognitive function in aged rats ([4]; 60 mg/kg): restored cognitive function in the aged rats to the level of the young control rats
